Experiments:
[1] = test system: KB; experiment: Cytotoxicity against human KB cells assessed as decrease in cell viability after 48 hrs by MTT assay; type: functional, cell-based
[2] = Resistance index, ratio of IC50 for human A2780AD cells to IC50 for human A2780 cells; type: functional
[3] = Cytotoxicity against human A2780AD cells assessed as decrease in cell viability after 48 hrs by MTT assay; type: functional, cell-based
[4] = test system: A2780; experiment: Cytotoxicity against human A2780 cells assessed as decrease in cell viability after 48 hrs by MTT assay; type: functional, cell-based; details: A2780, 48 h
[5] = Resistance index, ratio of IC50 for human Hela-beta3 cells to IC50 for human HeLa cells; type: functional
[6] = Cytotoxicity against human Hela-beta3 cells assessed as decrease in cell viability after 48 hrs by MTT assay; type: functional, cell-based
[7] = test system: HeLa; experiment: Cytotoxicity against human HeLa cells assessed as decrease in cell viability after 48 hrs by MTT assay; type: functional, cell-based
[8] = test system: KB-V1; experiment: Cytotoxicity against human KBV1 cells assessed as decrease in cell viability after 48 hrs by MTT assay; type: functional, cell-based; details: KB-V1, 48 h
[9] = Resistance index, ratio of IC50 for human KBV1 cells to IC50 for human KB cells; type: functional
[10] = species: Bos taurus; experiment: Displacement of Flutax-2 from calf brain microtubule after 20 mins by fluorescence polarization assay relative to paclitaxel
[11] = species: Bos taurus; experiment: Induction of calf brain microtubule assembly assessed as concentration of unassembled tubulin at 25 uM incubated for 45 mins by spectrophotometric method (reference value: >20 uM)
[12] = Cell cycle arrest in human Hela-beta3 cells assessed as concentration at which maximal accumulation at G2/M phase after 20 hrs by propidium iodide staining-based flow cytometric method; type: functional
[13] = test system: HeLa; experiment: Cell cycle arrest in human HeLa cells assessed as concentration at which maximal accumulation at G2/M phase after 20 hrs by propidium iodide staining-based flow cytometric method; type: functional
[14] = Potency index, ratio of paclitaxel IC50 to test compound IC50 for human A2780AD cells; type: functional
[15] = Cytotoxicity against human Hela-beta3 cells assessed as decrease in cell viability after 48 hrs in presence of beta-3 tubulin siRNA by MTT assay; type: functional, cell-based
[16] = test system: HeLa; experiment: Ratio of IC50 for human HeLa cells harboring beta-3 tubulin siRNA to IC50 for human HeLa cells; type: functional

COc1cccc(C(=O)O[C@H]2[C@H]([C@]3(OC(C)=O)CO[C@@H]3CCO)/C(C)=C(/O)C(=O)C3=C(C)[C@@H](OC(=O)[C@H](O)[C@H](CC(C)C)NC(=O)OC(C)(C)C)C[C@]2(O)C3(C)C)c1
IC50 [1]: 2.9 nM
Ratio IC50 [2]: 279
IC50 [3]: 1420 nM
IC50 [4]: 5.1 nM
Ratio IC50 [5]: 33.6
IC50 [6]: 72 nM
IC50 [7]: 2.1 nM
IC50 [8]: 3400 nM
Ratio IC50 [9]: 1172
fold change (FC) [10]: 1.28
Unassembled tubulin concentration [11]: 16.6 µM
Activity [12]: 25 nM
Activity [13]: 80 nM

CC(=O)O[C@@]12CO[C@@H]1CCOC/C=C/CCCO/C1=C(\C)[C@@H]2[C@H](OC(=O)c2ccccc2)[C@]2(O)C[C@H](OC(=O)[C@H](O)[C@@H](NC(=O)c3ccccc3)c3ccccc3)C(C)=C(C1=O)C2(C)C
Ratio IC50 [5]: 2.2
IC50 [6]: 282 nM
IC50 [7]: 126 nM
fold change (FC) [10]: 0.17

CC(=O)O[C@@]12CO[C@@H]1CCOCCCCO/C1=C(\C)[C@@H]2[C@H](OC(=O)c2ccccc2)[C@]2(O)C[C@H](OC(=O)[C@H](O)[C@@H](NC(=O)c3ccccc3)c3ccccc3)C(C)=C(C1=O)C2(C)C
Ratio IC50 [5]: 6.9
IC50 [6]: 58 nM
IC50 [7]: 8 nM
fold change (FC) [10]: 0.89

CC(=O)O[C@@]12CO[C@@H]1CCOC/C=C/CO/C1=C(\C)[C@@H]2[C@H](OC(=O)c2ccccc2)[C@]2(O)C[C@H](OC(=O)[C@H](O)[C@@H](NC(=O)c3ccccc3)c3ccccc3)C(C)=C(C1=O)C2(C)C
Ratio IC50 [2]: 77.1
IC50 [3]: 1720 nM
IC50 [4]: 22.3 nM
Ratio IC50 [5]: 7.5
IC50 [6]: 26 nM
IC50 [7]: 3.5 nM
fold change (FC) [10]: 0.96

CC(=O)O[C@@]12CO[C@@H]1CCOC/C=C/CO/C1=C(\C)[C@@H]2[C@H](OC(=O)c2cccc(N=[N+]=[N-])c2)[C@]2(O)C[C@H](OC(=O)[C@H](O)[C@@H](NC(=O)c3ccccc3)c3ccccc3)C(C)=C(C1=O)C2(C)C
IC50 [1]: 15 nM
Ratio IC50 [2]: 11.4
IC50 [3]: 32 nM
IC50 [4]: 2.8 nM
Ratio IC50 [5]: 64
IC50 [6]: 45 nM
IC50 [7]: 0.7 nM
IC50 [8]: 94 nM
Ratio IC50 [9]: 6.2
fold change (FC) [10]: 1.15
Unassembled tubulin concentration [11]: 2.34 µM
Activity [12]: 15 nM
Activity [13]: 25 nM

CO/C1=C(\C)[C@@H]([C@]2(OC(C)=O)CO[C@@H]2CCO)[C@H](OC(=O)c2ccccc2)[C@]2(O)C[C@H](OC(=O)[C@H](O)[C@@H](NC(=O)c3ccccc3)c3ccccc3)C(C)=C(C1=O)C2(C)C
Ratio IC50 [5]: 12.3
IC50 [6]: 3840 nM
IC50 [7]: 312 nM

CC(=O)O[C@@]12CO[C@@H]1CCOCCCCCO/C1=C(\C)[C@@H]2[C@H](OC(=O)c2ccccc2)[C@]2(O)C[C@H](OC(=O)[C@H](O)[C@@H](NC(=O)c3ccccc3)c3ccccc3)C(C)=C(C1=O)C2(C)C
Ratio IC50 [2]: 55
IC50 [3]: 1400 nM
IC50 [4]: 25.4 nM
Ratio IC50 [5]: 6
IC50 [6]: 13.3 to 20 nM
IC50 [7]: 3.3 nM
Ratio IC50 [14]: 2 - 3
IC50 [15]: 5.2 nM
Ratio IC50 [16]: 1.5
fold change (FC) [10]: 1.3

COCC[C@H]1OC[C@@]1(OC(C)=O)[C@@H]1/C(C)=C(/O)C(=O)C2=C(C)[C@@H](OC(=O)[C@H](O)[C@@H](NC(=O)c3ccccc3)c3ccccc3)C[C@@](O)([C@H]1OC(=O)c1ccccc1)C2(C)C
Ratio IC50 [5]: 7.6
IC50 [6]: 226 nM
IC50 [7]: 30 nM

CC(=O)O[C@@]12CO[C@@H]1CCOC/C=C\CCO/C1=C(\C)[C@@H]2[C@H](OC(=O)c2ccccc2)[C@]2(O)C[C@H](OC(=O)[C@H](O)[C@@H](NC(=O)c3ccccc3)c3ccccc3)C(C)=C(C1=O)C2(C)C
Ratio IC50 [2]: 87.4
IC50 [3]: 2190 nM
IC50 [4]: 25.1 nM
Ratio IC50 [5]: 5.1
IC50 [6]: 34 nM
IC50 [7]: 6.7 nM
fold change (FC) [10]: 0.96

CC(=O)O[C@@]1([C@@H]2/C(C)=C(/O)C(=O)C3=C(C)[C@@H](OC(=O)[C@H](O)[C@@H](NC(=O)c4ccccc4)c4ccccc4)C[C@@](O)([C@H]2OC(=O)c2ccccc2)C3(C)C)CO[C@@H]1CCO
Ratio IC50 [2]: >35.4
IC50 [3]: > 10000 nM
IC50 [4]: 282 nM
Ratio IC50 [5]: 15.6
IC50 [6]: 2980 nM
IC50 [7]: 192 nM
fold change (FC) [10]: 0.1

CC(=O)O[C@@]1([C@@H]2/C(C)=C(/O)C(=O)C3=C(C)[C@@H](OC(=O)[C@H](O)[C@H](CC(C)C)NC(=O)OC(C)(C)C)C[C@@](O)([C@H]2OC(=O)c2ccccc2)C3(C)C)CO[C@@H]1CCO
IC50 [1]: 6.6 nM
Ratio IC50 [2]: 207
IC50 [3]: 893 nM
IC50 [4]: 4.3 nM
Ratio IC50 [5]: 10
IC50 [6]: 33 nM
IC50 [7]: 3.3 nM
IC50 [8]: 255 nM
Ratio IC50 [9]: 38.7
fold change (FC) [10]: 0.132
Unassembled tubulin concentration [11]: 3.2 µM
Activity [12]: 15 nM
Activity [13]: 15 nM

CC(=O)O[C@@]1([C@@H]2/C(C)=C(/O)C(=O)C3=C(C)[C@@H](OC(=O)[C@H](O)[C@@H](NC(=O)c4ccccc4)c4ccccc4)C[C@@](O)([C@H]2OC(=O)c2cccc(N=[N+]=[N-])c2)C3(C)C)CO[C@@H]1CCO
IC50 [1]: 5.1 nM
IC50 [3]: > 5000 nM
IC50 [4]: 1.6 nM
Ratio IC50 [5]: 209
IC50 [6]: 209 nM
IC50 [7]: 1 nM
IC50 [8]: 5100 nM
Ratio IC50 [9]: 1000
fold change (FC) [10]: 1.18
Unassembled tubulin concentration [11]: 3.82 µM
Activity [12]: 20 nM
Activity [13]: 55 nM

CC(=O)O[C@H]1C(=O)[C@@]2(C)[C@H]([C@H](OC(=O)c3ccccc3)[C@]3(O)C[C@H](OC(=O)[C@H](O)[C@@H](NC(=O)c4ccccc4)c4ccccc4)C(C)=C1C3(C)C)[C@]1(OC(C)=O)CO[C@@H]1C[C@@H]2O [PACLITAXEL]
IC50 [1]: 1.9 nM
Ratio IC50 [2]: 759 - 1198
IC50 [3]: 1280 to 4550 nM
IC50 [4]: 1.07 to 6 nM
Ratio IC50 [5]: 19.6 - 31.8
IC50 [6]: 19.7 to 34 nM
IC50 [7]: 1.1 to 1.3 nM
IC50 [8]: 9800 nM
Ratio IC50 [9]: 5157
IC50 [15]: 9 nM
Ratio IC50 [16]: 4
Unassembled tubulin concentration [11]: 5.36 µM
Activity [12]: 15 nM
Activity [13]: 35 nM

CC(=O)O[C@@]1([C@@H]2/C(C)=C(/O)C(=O)C3=C(C)[C@@H](OC(=O)[C@H](O)[C@H](CC(C)C)NC(=O)OC(C)(C)C)C[C@@](O)([C@H]2OC(=O)c2cccc(N=[N+]=[N-])c2)C3(C)C)CO[C@@H]1CCO
IC50 [1]: 5.2 nM
Ratio IC50 [2]: 23.4
IC50 [3]: 96 nM
IC50 [4]: 4.1 nM
Ratio IC50 [5]: 21
IC50 [6]: 19 nM
IC50 [7]: 0.9 nM
IC50 [8]: 503 nM
Ratio IC50 [9]: 97
fold change (FC) [10]: 2.17
Unassembled tubulin concentration [11]: 3.63 µM
Activity [12]: 10 nM
Activity [13]: 20 nM

CC(=O)O[C@@]12CO[C@@H]1CCOC/C=C/CCO/C1=C(\C)[C@@H]2[C@H](OC(=O)c2ccccc2)[C@]2(O)C[C@H](OC(=O)[C@H](O)[C@@H](NC(=O)c3ccccc3)c3ccccc3)C(C)=C(C1=O)C2(C)C
Ratio IC50 [5]: 5.7
IC50 [6]: 158 nM
IC50 [7]: 27.9 nM
fold change (FC) [10]: 0.23

CC(=O)O[C@@]12CO[C@@H]1CCOCCCCCCO/C1=C(\C)[C@@H]2[C@H](OC(=O)c2ccccc2)[C@]2(O)C[C@H](OC(=O)[C@H](O)[C@@H](NC(=O)c3ccccc3)c3ccccc3)C(C)=C(C1=O)C2(C)C
Ratio IC50 [5]: 5.3
IC50 [6]: 118 nM
IC50 [7]: 22 nM
fold change (FC) [10]: 0.61

From ChEMBL document CHEMBL4138120, “Modification of C-seco taxoids through ring tethering and substituent replacement leading to effective agents against tumor drug resistance mediated by βIII-Tubulin and P-glycoprotein (P-gp) overexpressions” (Eur J Med Chem, 2017)
